According to patent publication US20080305038A1, “Transport of Nano-and Macromolecular Structures Into Cytoplasm and Nucleus of Cells” (LUDWIG-MAXIMILIANS-UNIVERSITÄT, priority 2005, published 2008):
“Also recorded” adds a separate entry of the source.

How the values were obtained:
HeLa cells = assay: Cell surface biotinylation for cargo (FITC-Avidin) uptake, FACS; format: cell-based; settings: HeLa cells pretreated 30 minutes at 4° C. at 185 μM, then 75 pmol FITC-Avidin, one hour at 37° C.
Protocol: (§1) Biotin-HPDP (Pierce, #21341) was solubilized in DMF and diluted in PBS (pH=7.4) to a final concentration of 100 μg/ml. 500 μl of this solution (=92.6 nmol) were incubated on CHO and HeLa cells (1×10^6 cells per Well) for 30 minutes at 4° C. After washing twice with PBS, 5 μg (=75 pmol) Avidin-FITC (Sigma, #A9275) were added and cells were incubated for 1 h at 37° C. After incubation, cells were washed twice with PBS and harvested with Trypsin-EDTA (Invitrogen, #25300-054). […] 1000 cells per sample were counted.
(§2) Instead of Biotin-HPDP, also Biotin (Sigma, #B4639), Biotin-Maleimid (Sigma, #B1267) or PBS (for determination of unspecific binding of Avidin-FITC) was incubated on the cells at equimolar concentrations.

CHO cells = assay: as above; format: cell-based; settings: CHO cells pretreated 30 minutes at 4° C. at 185 μM, then 75 pmol FITC-Avidin, one hour at 37° C.
Protocol: as §1, §2

intact cells = assay: Dependency of cellular and nuclear uptake on TP-substituent (chemical modification), intact cells; format: cell-based; settings: chemically modified TP-substituent of FITC-BSA-TP
Protocol: 1.3 Modification of FITC-BSA-TP Conjugates FITC-BSA was reacted with a 10-fold excess of cystein in PBS (pH=8, He-saturated) for 3 h. Photometric determination of cleaved thiopyridone indicated complete reaction of FITC-BSA-TP to FITC-BSA-Cys. The conjugate was purified chromatographically (Sephadex G-25 superfine HR 10/10 column; Pharmacia, Uppsala, Sweden). FITC-BSA-TP was reacted in presence of 13 mM DTT for 2 h and purified by chromatography in order to obtain a FITC-BSA conjugate with free thiol-function. Determination of degree of conjugation with Ellmanns' reagent indicated complete separation of the thiopyridone moiety, which, in consequence, led to FITC-BSA-SH. The synthesized FITC-BSA-SH conjugate was further reacted with a 50-fold excess of N-ethylmaleimide for 2 h and purified by chromatography subsequently. Controlling the product for remaining thiol moieties by using Elmanns' reagent indicated a complete reaction to FITC-BSA-NEM. 1.4 Coupling of FITC and SPDP to plasmid-DNA Coupling of FITC and SPDP with plasmid-DNA was carried out by photochemical coupling using psoralenamin. Therefore, a kit from company Sima was used (PS-amine). Coupling was carried out following the manufacturers' instructions. 4 μl of reconstituted psoralenamine solution (4.83 psoralenamine) were pipetted to 100 μl solubilized DNA (μCLuc in pur. water, 200 μg/ml DNA). The resulting solution was vortexed vigorously. The solution was irradiated with UV (λ=366 nm, 6 watt, 850 μwatt/cm^2) for 45 minutes on ice. Portions of each 50 μl were purified using a G-25 Microspin column (Amersham) and, subsequently, 2 μl 1×PBS were added. To one 50 μl fraction of the purified Psoralenamin-coupled DNA 2 μl FITC-NHS solution ([…] in DMF) were added. To the other 50 μl fraction a mixture consisting of 2 μl FITC-NHS (10 mg/ml in DMF) 2 μl SPDP (10 mg/ml in EtOH) were added. The solutions were agitated for 1.5 h at room temperature. Subsequent thereto plasmid-DNA conjugates were purified repeatedly using a G-25 Microspin column (Amersham), and used for cell culture experiments. […]

HepG2 cells [1] = assay: Quantification of cellular and nuclear uptake by flow cytometry (FACS); format: cell-based; settings: 1 h incubation; for nuclear uptake, nucleus associated FITC fluorescence (FACS): cell lysis with Nonidet P 40, released nucleoli; for cellular uptake (FACS): whole cells detached with trypsine
Protocol: Therefore, HepG2 cells were incubated for 1 h with FITC labelled constructs or with FITC labelled and TP-modified conjugates as used in experiments 1 to 4. After incubation cells were detached from the bottom of the cell culture plates (whole cells) by using either a trypsine containing solution or a trypsine containing solution supplemented with detergent Nonidet P 40. Detergent Nonidet P 40 leads to lysis of cytoplasm membranes and release of nucleoli. Propidiumiodid was added to trypsine buffer in order to identify the nucleoli.

HepG2 cells [2] = assay: Cellular and nuclear uptake, confocal laser scanning microscopy; format: cell-based
Protocol: (§3) Corresponding cell lines were seeded in 8-chamber sample carriers (Falcon, #4108, BD Bioscience, Belgium) resulting in about 70-80% confluence next day. Cells were incubated along with inventive conjugates for 1 h at 37° C. and 5% CO2 in an incubator (c=5 μM). Subsequently thereto cells were washed twice with PBS and fixed with a solution containing 4% paraformaldehyde. The nucleoli were colored by using the fluorescence dye DAPI (0.3 μM) or propidiumiodid (3 μM) and cells were embedded (Vectashield, Vector Laboratories, Burlingame, Calif., USA). Photographs were taken using a Sony 3CCD camera having an Axiovert 135-microscope (Carl-Zeiss, Göttingen, Germany; objective: Plan-Neofluar 100×/1.3 oil). Optical transsections for laser scanning microscopy were performed using a confocal microscope having three channels (TCS 4D; Leica Inc. Deerfield, Ill.) equipped with a Plan Apo 63×/1.32 oil objective). Both fluorescence dyes FITC and propidiumiodide were irradiated at wavelengths 488 nm and 567 nm using an argon/krypton laser. 256×256 8 bit pictures were generated having an axial distance of 250 nm and a pixel size of […]. Each picture series consisted of about 20-25 pictures. Both fluorochromes were mapped sequentially in the same nucleolus layer.
Confocal laser scanning microscopy was additionally carried out (see FIG. 3), since in epifluorescence, microscopy the resulting signal assumable may be due to association of the FITC-BSA-TP conjugates with the nuclear membrane.

HepG2 cells [3] = assay: Uptake in non-fixed and lysed cells, epifluorescence microscopy; format: cell-based
Protocol: In order to exclude artifacts resulting from fixing of cells FITC-modified BSA and FITC-BSA-TP conjugates (5 μM) were incubated for 1 h with HepG2 cells. Subsequently, cells were immediately transferred in PBS or lysed with lysis buffer within 30 minutes and analyzed via epifluorescence microscopy. […] Consequently, artifacts can be excluded due to fixing of cells.
Additionally, cytoplasma membrane of HepG2 of cells was lysed with lysis buffer (20 mM HEPES, 10 mM KCl, 0.5 mM EDTA, 0.1% Triton X-100, pH7.5) subsequent to incubation. […] Consequently, FITC-BSA-TP conjugates are localized in the nucleus.

HepG2 cells [4] = assay: Uptake of conjugates into cells, epifluorescence microscopy; format: cell-based; settings: 1 h incubation, 5 μM, fixed with paraformaldehyde
Protocol: as §3
Therefore, HepG2 cells were incubated for 1 h with FITC-labelled BSA conjugates (5 μm) and fixed with paraformaldehyde. Results were analysed by epifluorescence microscopy (see FIG. 2). The cellular and nuclear epifluorescence photographs show an FITC signal of BSA in the left column and an FITC-BSA-TP signal in the right column. The corresponding nucleoli were colored using the fluorescent dye propidiumiodid.
Dextran constructs and modifications were prepared analogously to BSA constructs as shown above in section 2.1. As a starting material an amino-modified dextran was used having a molecular weight of 70,000 (MW). […] Analysis was carried out using epifluorescence microscopy (see FIG. 4). The corresponding nucleoli were colored using the fluorescent dye propidiumiodid.
Similar as shown in 2.1 and 2.2 IgG1 constructs were analyzed as to whether they may be transported into the cells upon TP modification. IgG1 constructs and modifications were prepared analogously to BSA and dextran constructs as shown above in sections 2.1 and 2.2. As a starting material bovine IgG was used having a molecular weight of approximately 130,000 (MW). […] Analysis was carried out using epifluorescence microscopy (see FIG. 5). The corresponding nucleoli were colored using the fluorescent dye propidiumiodid.
PEG based negatively charged liposomes were used showing distal unmodified (carboxylic moiety) or TP-modified PEG chains. The liposomes were modified with fluorescence labelled lipids. Thereafter, HepG2 cells were coincubated with fluorescence labelled liposomes and fixed at different times. In order to detect uptake by cells and nucleus, epifluorescence microscopy was carried out (see FIG. 7). The nucleoli were colored with DAPI. From top to bottom a control experiment and the results from 1, 1.5, 2.5 and 4 h incubation are shown.
Therefore, a reporter plasmid encoding the luciferase gene and having a size of 6.4 kb was TP modified and incubated with HepG2 cells for 1 h.

HepG2 cells [5] = assay: Uptake of β-galactosidase, activity visualized by X-Gal; format: cell-based; settings: 5 μM; for cellular uptake of β-galactosidase / nuclear uptake of β-galactosidase: 1 h or 24 h
Protocol: (§4) Analogous to sections 2.1 to 2.3 above the enzyme β-galactosidase was modified with TP. […] Subsequent to modification HepG2 cells were incubated with (TP) modified β-galactosidase (5 μM) for 1 h or 24 h and then fixed in paraformaldehyde. β-galactosidase activity was visualized by using X-Gal (see FIG. 6).

[6] = Influence of TP-modification on activity of β-galactosidase; format: biochemical
Protocol: as §4

O=C(CCCC[C@@H]1SC[C@@H]2NC(=O)N[C@@H]21)NCCCCCCNC(=O)CCSSc1ccccn1 [Biotin-HPDP, N-[6-(Biotinamido)hexyl]-3′-(2′-pyridyldithio)propionamide]
delivery of cargo (FITC-Avidin) to cells, FITC-positive cells by FACS (HeLa cells): efficiently deliver cargo molecules to cells | delivery of cargo (FITC-Avidin) to cells, FITC-positive cells by FACS (CHO cells): efficiently deliver cargo molecules to cells

Biotin-Maleimid
delivery of cargo (FITC-Avidin) to cells, FITC-positive cells by FACS (HeLa cells): highly efficient cargo accumulation at the cellular surface | delivery of cargo (FITC-Avidin) to cells, FITC-positive cells by FACS (CHO cells): highly efficient cargo accumulation at the cellular surface

FITC-BSA-NEM: FITC-BSA-SH reacted with excess N-ethylmaleimide, thiol blocked
cellular or nuclear uptake (intact cells): Neither the free sulfhydryl moiety nor the sulfhydryl moiety blocked by N-ethylmaleimide mediated cellular or nuclear uptake

FITC-BSA-SH: FITC-BSA-TP reacted with DTT, giving FITC-BSA conjugate with free thiol-function
cellular or nuclear uptake (intact cells): Neither the free sulfhydryl moiety nor the sulfhydryl moiety blocked by N-ethylmaleimide mediated cellular or nuclear uptake

FITC-BSA-TP: FITC-labelled BSA reacted with SPDP; thiopyridyl (PDP) conjugation degree ~9-10 per BSA
nuclear uptake, nucleus associated FITC fluorescence (FACS) (HepG2 cells [1]): 63% | cellular uptake (FACS) (HepG2 cells [1]): 78% | cellular uptake (localization in the cytoplasm) (HepG2 cells [2]): cellular uptake | nuclear uptake (localization in the nucleus) (HepG2 cells [2]): Uptake of BSA into the nucleus is clearly observable; also recorded: nuclear uptake of FITC-BSA-TP is observable | distribution in fixed versus non-fixed cells (HepG2 cells [3]; 5 μM, 1 h, transferred in PBS without fixing, epifluorescence): identical in both fixed and non-fixed HepG2 cells | fluorescence signal after lysis of cytoplasma membrane (HepG2 cells [3]; lysis buffer with 0.1% Triton X-100 after incubation): a fluorescence signal was clearly observed in the nucleus | cellular uptake (uptake into cytoplasm) (HepG2 cells [4]): uptake of FITC-BSA-TP constructs into cytoplasm and nucleus | nuclear uptake (uptake into the nucleus) (HepG2 cells [4]): clearly observable; also recorded: uptake of FITC-BSA-TP constructs into cytoplasm and nucleus | cellular or nuclear uptake (intact cells): cellular and nuclear uptake are only observable if an intact TP-substituent is present

FITC-BSA: BSA labelled with carboxyfluorescein-N-hydroxysuccinimidester, without TP modification
nuclear uptake, nucleus associated FITC fluorescence (FACS) (HepG2 cells [1]): 51% | cellular uptake (FACS) (HepG2 cells [1]): 55% | cellular uptake (localization in the cytoplasm) (HepG2 cells [2]): localization in the cytoplasm | nuclear uptake (localization in the nucleus) (HepG2 cells [2]): no localization of non-modified FITC-BSA in the nucleus could be observed | cellular uptake (uptake into cytoplasm) (HepG2 cells [4]): Uptake of non-modified FITC-BSA into cytoplasm of HepG2 cells could also be observed | nuclear uptake (uptake into the nucleus) (HepG2 cells [4]): no uptake of FITC-BSA into the nucleus could be observed

FITC-Dextran
nuclear uptake, nucleus associated FITC fluorescence (FACS) (HepG2 cells [1]): 7% | cellular uptake (FACS) (HepG2 cells [1]): 25% | cellular uptake (uptake into cytoplasm) (HepG2 cells [4]): Uptake of non-modified FITC-Dextran into cytoplasm of HepG2 cells could also be observed | nuclear uptake (uptake into the nucleus) (HepG2 cells [4]): no uptake of FITC-Dextran into the nucleus could be observed

FITC-β-galactosidase-TP: enzyme β-galactosidase modified with thiopyridyl via SPDP, conjugation degree about 1
cellular uptake of β-galactosidase (HepG2 cells [5]): uptake of β-galactosidase into cytoplasm and nucleus into many cells | nuclear uptake of β-galactosidase (HepG2 cells [5]): uptake of β-galactosidase into cytoplasm and nucleus into many cells | nuclear uptake of β-galactosidase (HepG2 cells [5]; listed as (TP) modified β-galactosidase): clearly observable | positive cells and nucleoli (HepG2 cells [5]; 24 h incubation): almost all cells and their nucleoli showed a positive signal | influence of TP-modification on activity of β-galactosidase [6]: does not exhibit any influence on activity of β-galactosidase

non-modified β-galactosidase: enzyme β-galactosidase without TP modification, control
cellular uptake of β-galactosidase (HepG2 cells [5]): negligible | nuclear uptake of β-galactosidase (HepG2 cells [5]): no nuclear uptake
